This passage reports IC50 results from patent publication US9718808B2, “Inhibitors of the renal outer medullary potassium channel” (Merck Sharp & Dohme Corp., priority 2014, dated 2017).

Broadly, the IC50 is the concentration that gives 50% inhibition. Higher therefore signals weaker potency.

For the assay, the target named is ROMK (Kir1.1) channel (Homo sapiens (Human), UniProt P48048). Nature of the assay: Thallium Flux Assay. Type of assay: cell-based. How it is done:
A Thallium Flux Assay was performed on each of the final product compounds of the Examples. This assay has been described previously; see, e.g., PCT Published Application WO 2013/062900.

ROMK (Kir1.1) channel, sequence (P48048 whole entry): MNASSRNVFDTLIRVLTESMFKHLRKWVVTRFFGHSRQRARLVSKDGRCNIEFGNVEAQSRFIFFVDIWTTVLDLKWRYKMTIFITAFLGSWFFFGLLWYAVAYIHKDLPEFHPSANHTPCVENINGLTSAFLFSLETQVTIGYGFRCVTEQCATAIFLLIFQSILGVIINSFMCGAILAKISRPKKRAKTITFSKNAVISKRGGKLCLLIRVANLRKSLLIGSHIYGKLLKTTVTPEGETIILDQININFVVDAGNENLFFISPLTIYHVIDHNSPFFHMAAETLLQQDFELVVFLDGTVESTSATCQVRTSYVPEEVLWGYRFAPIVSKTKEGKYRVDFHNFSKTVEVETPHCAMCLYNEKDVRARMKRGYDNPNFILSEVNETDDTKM

As to `CC1=C(N2CC[C@]3(CC[C@H](N(C)Cc4ccc(-n5cnnn5)cn4)CC3)C2=O)COC1=O` [Example 87], half-maximal inhibition (IC50) required 550 nM. Regarding `CC1=C(N2CC[C@]3(CC[C@@H](N(C)Cc4ccc(-n5cnnn5)cn4)CC3)C2=O)COC1=O` [Example 88], the IC50 was determined as 7 nM. Compound `CC1=C(N2CC[C@]3(CC[C@H](N(C)Cc4ccc5c(c4)Cn4nnnc4-5)CC3)C2=O)COC1=O` [Example 89] gave an IC50 of 950 nM. Consider `CC1=C(N2CC[C@]3(CC[C@@H](N(C)Cc4ccc5c(c4)Cn4nnnc4-5)CC3)C2=O)COC1=O` [Example 90], for which the concentration for half-maximal inhibition (IC50) worked out at 22 nM.

In turn, `CC1=C(N2CC[C@]3(CC[C@H](N(C)Cc4cnc(-n5cnnn5)cn4)CC3)C2=O)COC1=O` [Example 91] gave an IC50 of 690 nM. As for `CC1=C(N2CC[C@]3(CC[C@@H](N(C)Cc4cnc(-n5cnnn5)cn4)CC3)C2=O)COC1=O` [Example 92], half-maximal inhibition (IC50) required 29 nM.

For the compound `CC1=C(N2CC[C@]3(CC[C@H](N(C)[C@H](C)c4ccc(-n5cnnn5)nc4)CC3)C2=O)COC1=O` [Example 93], the IC50 stood at 510 nM. The figure for `CC1=C(N2CC[C@]3(CC[C@@H](N(C)[C@H](C)c4ccc(-n5cnnn5)nc4)CC3)C2=O)COC1=O` [Example 94] is 11 nM; for `CC1=C(N2CC[C@]3(CC[C@@H](N(C)[C@@H](C)c4ccc(-n5cnnn5)nc4)CC3)C2=O)COC1=O` [Example 95] it is 24 nM. The figure for `CC1=C(N2CC[C@]3(CC[C@@H](N(C)Cc4ccc5c(ccc6nnnn65)c4)CC3)C2=O)COC1=O` [Example 96] is 21 nM; for `CC1=C(N2CC[C@]3(CC[C@H](N(C)[C@@H](CO)c4ccc(-n5cnnn5)nc4)CC3)C2=O)COC1=O` [Example 101] it is 290 nM; for `CC1=C(N2CC[C@]3(CC[C@@H](N(C)[C@@H](CO)c4ccc(-n5cnnn5)nc4)CC3)C2=O)COC1=O` [Example 102] it is 300 nM. Turning to `CN(Cc1ccc(-n2cnnn2)nn1)C1CCC2(CC1)CCN(C1=CC(=O)OC1)C2=O` (stereo not drawn) [Example 103], the IC50 turned out to be 87 nM.

In the case of `C[C@H]1C[C@]2(CC[C@@H](N(C)Cc3ccc(-n4cnnn4)nn3)CC2)C(=O)N1C1=CC(=O)OC1` [Example 104, (3S,5r,8S)-8-(((6-(1H-tetrazol-1-yl)pyridazin-3-yl)methyl)(methyl)amino)-3-methyl-2-(5-oxo-2,5-dihydrofuran-3-yl)-2-azaspiro[4.5]decan-1-one], the IC50 came to 41 nM.

The compound `CC1=C(N2CC[C@]3(CC[C@H](N(C)CCc4ccc5c(c4)COC5=O)CC3)C2=O)COC1=O` [Example 105] gave an IC50 of 150 nM. The figure for `CC1=C(N2CC[C@]3(CC[C@@H](N(C)Cc4ccc5c(c4)Cn4nnnc4-5)CC3)C2=O)COC1=O` [Example 106] is 8.8 nM; for `CC1=C(N2CC[C@]3(CC[C@@H](N(C)Cc4nnc(-n5cnnn5)cc4C)CC3)C2=O)COC1=O` [Example 107] it is 22 nM; for `CC1=C(N2CC[C@]3(CC[C@@H](N(C)Cc4ccc(-n5ncnn5)cc4)CC3)C2=O)COC1=O` [Example 109] it is 3.4 nM. Take `CC1=C(N2CC[C@]3(CC[C@H](N(C)Cc4ccc(-n5ncnn5)cc4)CC3)C2=O)COC1=O` [Example 111]: the IC50 stood at 300 nM. Under `CC1=C(N2CC[C@]3(CC[C@@H](N(C)Cc4ccc5c(c4)CCc4nnnn4-5)CC3)C2=O)COC1=O` [Example 112] stands 32 nM; under `CC1=C(N2CC[C@]3(CC[C@@H](N(C)Cc4ccc(-n5ncnn5)nn4)CC3)C2=O)COC1=O` [Example 113], 36 nM. Under `CC1=C(N2CC[C@]3(CC[C@H](N(C)Cc4ccc(-n5ncnn5)nn4)CC3)C2=O)COC1=O` [Example 114] stands 430 nM; under `CC1=C(N2CC[C@]3(CC[C@](C)(N(C)Cc4ccc(-n5cnnn5)nn4)CC3)C2=O)COC1=O` [Example 115], 15 nM. The figure for `CC1=C(N2CC[C@]3(CC[C@@](C)(N(C)Cc4ccc(-n5cnnn5)nn4)CC3)C2=O)COC1=O` [Example 116] is 24 nM; for `CC1=C(N2C(=O)[C@]3(CC[C@H](N(C)Cc4ccc5c(c4)Cn4nnnc4-5)CC3)C[C@@H]2C)COC1=O` [Example 120] it is 43 nM; for `CC1=C(N2CC[C@]3(CC[C@@H](N(C)Cc4ccc5c(c4F)Cn4nnnc4-5)CC3)C2=O)COC1=O` [Example 121] it is 23 nM.

The compound `CC1=C(N2CC[C@]3(CC[C@@H](N(C)Cc4cc5c(cc4C)-c4nnnn4C5)CC3)C2=O)COC1=O` [Example 122] returned an IC50 of 26 nM. For `CC1=C(N2CC[C@]3(CC[C@H](N(C)C[C@H](O)c4ccc5c(c4C)COC5=O)CC3)C2=O)COC1=O` [Example 123], the half-inhibitory concentration (IC50) worked out at 77 nM. The figure for `CC1=C(N2CCC3(CCC(N(C)C[C@H](O)c4ccc5c(c4C)COC5=O)CC3)C2=O)COC1=O` (stereo partly drawn) [Example 124] is 64 nM; for `CC1=C(N2CC[C@]3(CC[C@@H](N(C)Cc4ncc(-n5cnnn5)nc4C)CC3)C2=O)COC1=O` [Example 125] it is 22 nM.

Turning to `CC1=C(N2CC[C@]3(CC[C@](C)(N(C)Cc4cnc(-n5cnnn5)cn4)CC3)C2=O)COC1=O` [Example 127], the IC50 was 91 nM. The figure for `CN(Cc1cnc(-n2cnnn2)cn1)C1CCC2(CC1)CCN(C1=CC(=O)OC1)C2=O` (stereo not drawn) [Example 128] is 93 nM; for `CC1=C(N2CC[C@]3(CC[C@@](C)(N(C)Cc4cnc(-n5cnnn5)cn4)CC3)C2=O)COC1=O` [Example 129] it is 45 nM. Under `CC1=C(N2CC[C@]3(CC[C@@H](N(CCO)Cc4ccc(-n5cnnn5)nc4)CC3)C2=O)COC1=O` [Example 130, (5r,8r)-8-(((6-(1H-tetrazol-1-yl)pyridin-3-yl)methyl)(2-hydroxyethyl)amino)-2-(4-methyl-5-oxo-2,5-dihydrofuran-3-yl)-2-azaspiro[4.5]decan-1-one] stands 30 nM. Take `CC1=C(N2CC[C@]3(CC[C@H](N(CCO)Cc4ccc(-n5cnnn5)nc4)CC3)C2=O)COC1=O` [Example 131, (5s,8s)-8-[(2-hydroxyethyl) {[6-(1H-tetrazol-1-yl)pyridin-3-yl]methyl}amino]-2-(4-methyl-5-oxo-2,5-dihydrofuran-3-yl)-2-azaspiro[4.5]decan-1-one]: the concentration for half-maximal inhibition (IC50) came out at 160 nM. `CCCN(C[C@H](O)c1ccc2c(c1C)COC2=O)C1CCC2(CC1)CCN(C1=C(C)C(=O)OC1)C2=O` (stereo partly drawn) [Example 132, 8-{[(2R)-2-hydroxy-2-(4-methyl-1-oxo-1,3-dihydro-2-benzofuran-5-yl)ethyl](propyl)amino}-2-(4-methyl-5-oxo-2,5-dihydrofuran-3-yl)-2-azaspiro[4.5]decan-1-one] showed an IC50 of 100 nM. The figure for `CCN(Cc1ccc2c(c1)Cn1nnnc1-2)[C@H]1CC[C@@]2(CCN(C3=C(C)C(=O)OC3)C2=O)CC1` [Example 133] is 36 nM. The figure for `CCN(Cc1ccc(-n2cnnn2)nc1)[C@H]1CC[C@]2(CCN(C3=C(C)C(=O)OC3)C2=O)CC1` [Example 134] is 470 nM. The figure for `CC1=C(N2CC[C@]3(CC[C@H](N(CCO)Cc4ccc(-n5cnnn5)cn4)CC3)C2=O)COC1=O` [Example 136] is 160 nM; for `CCN(Cc1ccc(-n2cnnn2)cn1)[C@H]1CC[C@]2(CCN(C3=C(C)C(=O)OC3)C2=O)CC1` [Example 138] it is 34 nM. As to `CC1=C(N2CC[C@]3(CC[C@H](N(CC(=O)N(C)C)Cc4ccc(-n5cnnn5)nc4)CC3)C2=O)COC1=O` [Example 139], the IC50 came to 120 nM. Under `CC1=C(N2CC[C@]3(CC[C@H](N(CC(N)=O)Cc4ccc(-n5cnnn5)nc4)CC3)C2=O)COC1=O` [Example 140] stands 110 nM; under `CC1=C(N2CC[C@]3(CC[C@@H](N(CC(N)=O)Cc4ccc(-n5cnnn5)nc4)CC3)C2=O)COC1=O` [Example 141], 680 nM. `CCN(Cc1ccc2c(c1C)COC2=O)C1CCC2(CC1)CCN(C1=C(C)C(=O)OC1)C2=O` (stereo not drawn) [Example 142]: half-maximal inhibition (IC50) was put at 490 nM.

Consider “(5s,8s)-2-(4-methyl-5-oxo-2,5-dihydrofuran-3-yl)-8-({[5-(1H-tetrazol-1-yl)pyrazin-2-yl]methyl}amino)-2-azaspiro[4.5]decan-1-one [Example 13]”, for which the IC50 was 32 nM.
